Laboratory results from PubChem BioAssay AID2060885 (Molecular Pharmacology Branch, DTP, NCI, 2025).

System: NCI-H23 complex spheroids with HUVEC/MSC, viability
Assay: Anticancer human tumor NCI-H23 cell line growth inhibition [RAS];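 also: spheroids exposed to compound for 7 days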;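 as to viability, T/C: 100% = DMSO vehicle control viability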
Settings: for IC50: curve of first compound; for viability, T/C: stronger effect = lower value; active = viability on the fitted dose curve at most 10% of control; inactive = the rest
Outline: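 Agents were tested in combination matrices in half-log decrements from a top concentration at or near clinical Cmax (10 microM if undetermined). Targets were multi-cell spheroids of tumour lines plus HUVEC and MSC stromal cells.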

[1] = second compound 0.000949 µM, first compound 0.0316 µM
[2] = second compound 0.000949 µM, first compound 0.1 µM
[3] = second compound 0.000949 µM, first compound 0.316 µM
[4] = second compound 0.000949 µM, first compound 1 µM
[5] = second compound 0.003 µM, first compound 0.0316 µM
[6] = second compound 0.003 µM, first compound 0.1 µM
[7] = second compound 0.003 µM, first compound 0.316 µM
[8] = second compound 0.003 µM, first compound 1 µM
[9] = second compound 0.00949 µM, first compound 0.0316 µM
[10] = second compound 0.00949 µM, first compound 0.1 µM
[11] = second compound 0.00949 µM, first compound 0.316 µM
[12] = second compound 0.00949 µM, first compound 1 µM
[13] = second compound 0.03 µM, first compound 0.0316 µM
[14] = second compound 0.03 µM, first compound 0.1 µM
[15] = second compound 0.03 µM, first compound 0.316 µM
[16] = second compound 0.03 µM, first compound 1 µM
[17] = second compound 0.0949 µM, first compound 0.0316 µM
[18] = second compound 0.0949 µM, first compound 0.1 µM
[19] = second compound 0.0949 µM, first compound 0.316 µM
[20] = second compound 0.0949 µM, first compound 1 µM
[21] = second compound 0.3 µM, first compound 0.0316 µM
[22] = second compound 0.3 µM, first compound 0.1 µM
[23] = second compound 0.3 µM, first compound 0.316 µM
[24] = second compound 0.3 µM, first compound 1 µM

CC(=O)OC12COC1CC(O)C1(C)C(=O)C(O)C3=C(C)C(OC(=O)C(O)C(NC(=O)OC(C)(C)C)c4ccccc4)CC(O)(C(OC(=O)c4ccccc4)C21)C3(C)C (centres undefined) + CCn1c(-c2cc(N3CCN(C)CC3)cnc2C(C)OC)c2c3cc(ccc31)-c1csc(n1)CC(NC(=O)C1CC1C)C(=O)N1CCCC(N1)C(=O)OCC(C)(C)C2
< 31.6 nM: IC50 (second compound 0.000949 µM) | IC50 (second compound 0.003 µM) | IC50 (second compound 0.00949 µM) | IC50 (second compound 0.03 µM) | IC50 (second compound 0.0949 µM) | IC50 (second compound 0.3 µM)
inactive: viability, T/C [1] 13.9% | viability, T/C [2] 16.1% | viability, T/C [3] 14.7% | viability, T/C [4] 15.5% | viability, T/C (second compound 0.000949 µM, first compound 3.16 µM) 21.5% | viability, T/C (second compound 0.000949 µM, first compound 10 µM) 25.5% | viability, T/C [5] 11.9% | viability, T/C [6] 12.4% | viability, T/C [7] 11.6% | viability, T/C [8] 12.1% | viability, T/C (second compound 0.003 µM, first compound 3.16 µM) 17.1% | viability, T/C (second compound 0.003 µM, first compound 10 µM) 19.4% | viability, T/C [9] 12.5% | viability, T/C [10] 10.9% | viability, T/C [11] 11.6% | viability, T/C [12] 13.9% | viability, T/C (second compound 0.00949 µM, first compound 3.16 µM) 15.8% | viability, T/C (second compound 0.00949 µM, first compound 10 µM) 17.3% | viability, T/C [13] 11.4% | viability, T/C [14] 11.7% | viability, T/C [15] 12% | viability, T/C [16] 12.5% | viability, T/C (second compound 0.03 µM, first compound 3.16 µM) 16.4% | viability, T/C (second compound 0.03 µM, first compound 10 µM) 19.9% | viability, T/C [17] 10.7% | viability, T/C [18] 10.6% | viability, T/C [19] 10.4% | viability, T/C [20] 10.9% | viability, T/C (second compound 0.0949 µM, first compound 3.16 µM) 12.4% | viability, T/C (second compound 0.0949 µM, first compound 10 µM) 14.9% | viability, T/C [21] 10.1% | viability, T/C [22] 8.97% | viability, T/C [23] 10.4% | viability, T/C [24] 8.98% | viability, T/C (second compound 0.3 µM, first compound 3.16 µM) 12.6% | viability, T/C (second compound 0.3 µM, first compound 10 µM) 14.2%

Nc1ccn(C2OC(CO)C(O)C2(F)F)c(=O)n1 (centres undefined) + CCn1c(-c2cc(N3CCN(C)CC3)cnc2C(C)OC)c2c3cc(ccc31)-c1csc(n1)CC(NC(=O)C1CC1C)C(=O)N1CCCC(N1)C(=O)OCC(C)(C)C2
active: viability, T/C (second compound 0.000949 µM, first compound 0.01 µM) 2.1% | viability, T/C [1] 2.03% | viability, T/C [2] 1.87% | viability, T/C [3] 1.82% | viability, T/C [4] 1.3% | viability, T/C (second compound 0.003 µM, first compound 0.01 µM) 1.96% | viability, T/C [5] 1.42% | viability, T/C [6] 1.52% | viability, T/C [7] 2.04% | viability, T/C [8] 1.24% | viability, T/C (second compound 0.00949 µM, first compound 0.01 µM) 1.87% | viability, T/C [9] 2.05% | viability, T/C [10] 1.74% | viability, T/C [11] 2.15% | viability, T/C [12] 2.22% | viability, T/C (second compound 0.03 µM, first compound 0.01 µM) 2.82% | viability, T/C [13] 2.27% | viability, T/C [14] 2.33% | viability, T/C [15] 1.56% | viability, T/C [16] 1.99% | viability, T/C (second compound 0.0949 µM, first compound 0.01 µM) 3.4% | viability, T/C [17] 3.37% | viability, T/C [18] 2.4% | viability, T/C [19] 2.14% | viability, T/C [20] 2.59% | viability, T/C (second compound 0.3 µM, first compound 0.01 µM) 5.87% | viability, T/C [21] 3.63% | viability, T/C [22] 3.14% | viability, T/C [23] 2.91% | viability, T/C [24] 3.48%
< 3.16 nM: IC50 (second compound 0.000949 µM) | IC50 (second compound 0.003 µM) | IC50 (second compound 0.00949 µM) | IC50 (second compound 0.03 µM) | IC50 (second compound 0.0949 µM) | IC50 (second compound 0.3 µM)
inactive: viability, T/C (second compound 0.000949 µM, first compound 0.00316 µM) 16.9% | viability, T/C (second compound 0.003 µM, first compound 0.00316 µM) 12.9% | viability, T/C (second compound 0.00949 µM, first compound 0.00316 µM) 12.6% | viability, T/C (second compound 0.03 µM, first compound 0.00316 µM) 12% | viability, T/C (second compound 0.0949 µM, first compound 0.00316 µM) 12.2% | viability, T/C (second compound 0.3 µM, first compound 0.00316 µM) 15.5%
